The text below walks through data of patent publication US20250154180A1, “CRK-LIKE (CRKL) ADAPTOR PROTEIN INHIBITORS AND METHODS OF MAKING AND USING THE SAME” (Rutgers, The State University of New Jersey, priority 2022, published 2025).

The subject of data set [1] is MDA-MB-231 cells. In words: MTT proliferation assay, MDA-MB-231. The data set is classed as cell-based. The method, then:
(§1) MTT assay—The MTT assay was used to detect cell proliferation. Briefly, cells were plated in a 96-well plate at a density of 50,000 cells/well in 200 μl of culture medium with candidate drugs to be tested (DMSO as a negative control). The treated cells were incubated for four hours a 37° C. with a 5% CO2 incubator to allow dark crystals to form at the bottom of the wells. After culturing for 48 hours, […] of MTT reagent was added to each well and mixed gently for one minute. After aspirating the culture medium from each well, 100 μl of crystal dissolving solution was added to each well and incubated for 10 minutes at RT. The signal was quantified by measuring the absorbance in each sample at 570 nm using a microplate reader.
(§2) Compound II is referred to as “NC5-SO2F” in FIGS. 7A-7C.
Cell proliferation was first determined by MTT assay as confirmation. […] CrkL is known to mediate the activation of both Raf/ERK and PI3K pathways. So, proteins that relate to these two pathways were utilized.
For orientation: Formazan colour is commonly taken as a measure of viable cells.

Data set [2] deals with BXPC3 cells. The data set is described as follows: Propidium iodide staining, BXPC3. It is filed as cell-based. Particulars: various concentrations.
Text: as §2

Data set [3] relates to PDAC cells BXPC3. The data set is described as follows: MTT assay, BXPC3. It is filed as cell-based. The note with it: 5 uM. The method, then: as §1, §2
The test system of data set [4] is Sk-Hep1 tumor. The data set is described as follows: HCC Sk-Hep1 xenograft model. The data set is classed as in vivo, NSG mice. The note with it: four-group study, 5.0 μg/g oral gavage. The source says: To further test whether the tumor growth inhibition effect of NC5 applied to other solid tumors, the HCC-Sk-Hep1cell line and PDAC-BXPC3 cell line xenograft models were used. Subcutaneous injection of 1.5×10^6 SK-Hep1 or BXPC3 cells in NSG mice, Six-ten days after tumor cell injection, the palpable tumor in NSG mice was confirmed.
To test the effects of the disclosed compounds on the xenograft mouse models, the HCC-Sk-Hep1 cell line xenograft model in NSG mice and 4T1-Luc orthotopic syngeneic breast tumor model in Balb/c mice was used. After confirming the palpable tumor in NSG or Balb/c mice. […] Compound III is referred to as “NC5-140-1” and Compound I is referred to as “NC5-140-2” in FIGS. 11A-11C.

Data set [5] in a line: Thermodynamic solubility. The data set is classed as physicochemical. Particulars: thermodynamic from solid. The method, then:
In this example, solubility measurement assays were performed using a phosphate buffer (also referred to as “PB”) system and a water system to evaluate thermodynamic solubility. The PB system was at a pH of 7.4 to mimic in vivo environments. For the PB system, the values were determined to be NC5: Thermodynamic Solubility pH=7.4<0.42 μg/mL; Compound III: Thermodynamic Solubility pH=7.4<0.48 μg/mL; and Compound I: Thermodynamic Solubility pH=7.4<0.48 μg/mL. Results for the water assay were as follows: NC5: Thermodynamic Solubility Water<0.42 μg/mL; Compound III: Thermodynamic Solubility Water<0.48 μg/mL; and Compound I: Thermodynamic Solubility Water<0.48 μg/mL.

Data set [6] relates to MDA-MB-231 cells. In words: XTT cell viability, MDA-MB-231. It is filed as cell-based. The note with it: 24 and 48 hours. The method, then: (§3) FIGS. 8A-8C show results using MDA-MB-231 cells (FIG. 8A) or BXPC3 cells (FIG. 8B), wherein the cells were treated with 5 μM of NC5, Compound III (referred to as “NC5-140-1” in FIGS. 8A-8C), and Compound I (referred to as “NC5-140-2” in FIGS. 8A-8C) for 24-48 hours, wherein the XTT assay was used to determine cell viability. The symbol indicates the significance of NC5 vs. Compounds I and/or III; *p<0.05. Data represent mean±SEM.
(§4) Compound embodiments, compound III and compound I, were also made and evaluated. TNBC cells and PDAC cells were treated with a serial dose of original NC5 and modified NC5 derivatives for 24 and 48 hours. The cell viability will be measured by XTT assay. […] Compound III is referred to as “NC5-140-1” and Compound I is referred to as “NC5-140-2” in FIGS. 8A-8C.

Data set [7] deals with BXPC3 cells. The data set is described as follows: XTT cell viability, BXPC3. The note with it: 24 and 48 hours. The data set is classed as cell-based. The method, then: as §3, §4
In data set [8] the test system is Sk-Hep1 cells. The data set is described as follows: Growth inhibition of Sk-Hep1 cells (cell culture images). The data set is classed as cell-based. The note with it: 5 μM, 24 hours.
The nature of data set [9]: Mouse toxicity assays (serum ALT, AST, BUN, creatinine). It is filed as in vivo, mice. The note with it: at the indicated dosages. Here is the method:
Three mice were treated in each group. Blood samples were collected from every mouse in pre-treatment and post-treatment (20 days), and serum was obtained for alanine aminotransferase (ALT, SGPT, FIG. 12A), aspartate aminotransferase (AST, SGOT, FIG. 12B), blood urea nitrogen (BUN, FIG. 12C), and creatinine (FIG. 12D) tests to monitor liver and kidney toxicity. The normal Reference Ranges for ALT is 17-77 IU/L; AST is 54-298 IU/L; BUN is 18.5-33.3 mg/dL; Cr is 0-0.40 mg/dL.
Mouse toxicity assays—Blood was collected from the submandibular facial vein following IACUC guidelines (CMP, Houston Methodist Research Institute and Rutgers University) before and 20-day after the drug treatment. The Department of Veterinary Medicine & Surgery, MD Anderson Cancer Center, performed the clinical biochemistry and pharmacokinetics tests. Blood serum chemistry analysis included alanine transaminase (ALT), aspartate transaminase (AST), blood urea nitrogen (BUN), and creatinine level measurements.
Alanine aminotransferase (ALT, SGPT), aspartate aminotransferase (AST, SGOT), blood urea nitrogen (BUN), and creatinine levels were examined to determine liver and kidney toxicity of Pomiferin treatments in vivo. […] Nevertheless, these changes have no physiological significance because ALT, AST and BUN levels in all mice were within normal mouse reference ranges. […]

In data set [10] the test system is IL-2 production from human PBMCs. In words: IL-2 ELISA, PBMCs. It is filed as cell-based. The method, then: IL-2 ELISA—IL-2 in vitro enzyme-linked immunosorbent assay (ELISA) was used to measure human IL-2 productions. This assay was conducted per the user manual from the kit. In brief, human PBMCs were cultured in R10 medium with 0.5 μg/ml PHA. Then, 100 μl of the standard and sample was added to each well and incubated at 4° C. overnight. A prepared biotin antibody (100 μl) was added to each well and incubated for 1 hour at room temperature. Then, 100 μl prepared streptavidin solution was added and incubated for 45 minutes at room temperature. TMB one-step substrate reagent (100 μl) was then added to each well and incubated for 30 minutes at room temperature. Stop solution (50 μl) was then added to each well, and the results were quantified at 450 nm by Infinite M1000 Pro Plate Reader (Tecan, Switzerland) immediately.
Previous studies have shown that phosphorylated CrkL inhibits immune cell functions. It was then evaluated whether a pCrkL inhibitor could restore immune cell functions. To test this, the production of IL-2 from human PBMCs treated with different concentrations of Pomiferin was quantitated. Phytohemagglutinin (PHA) was used to stimulate the secretion of IL-2 as a positive control group. […] Similar results were obtained from the third donor (FIG. 5B, lower panel).

Data set [11] deals with CrkL (phosphorylation at Y207 by Ab1). The data set is described as follows: AlphaScreen of Ab1 phosphorylation of CrkL at Y207. It is filed as biochemical. Particulars: compared to DMSO; positive control in the five libraries.
Data set [12] concerns the target CrkL (Homo sapiens, UniProt P46109). The data set is classed as biochemical. From the text:
Single-molecule Fluorescence Resonance Energy Transfer (smFRET)—Single-molecule Fluorescence Resonance Energy Transfer (smFRET) was applied to monitor conformations of single molecules. CrkL has two cysteines (a relatively rare amino acid), one in its SH2 and another in SH3C domains. CrkL was mixed with a mixture of equal amounts of Alexa555-maleimide and Alexa647-maleimide (Invitrogen, USA) (10× over protein concentration) to randomly label the two cysteines. The labeled protein was purified from an unreacted dye by gel filtration. Molecules with exactly one donor and acceptor are identified in single-molecule data analysis and used for further analysis. […] The FRET change between non-phosphorylated CrkL and phosphorylated CrkL was measured. The dye-labeled protein was used in in vitro kinase assays with different drugs treatments as described above. smFRET measurements were performed with a prism-type total internal refection microscope (TIRF) where FRET efficiency is calculated from measured donor and acceptor intensities (Id and Ia, respectively) by FRET=Ia/(Id+Ia), as described previously. To surface immobilize 6×His tagged CrkL, the protein was added to the biotinylated 6×His antibody (Thermo Scientific Cat #: MA1-80087) bound to streptavidin, which was adsorbed to a quartz slide. A lipid bilayer was used to passivate the quartz surface. Phosphorylation was performed on the immobilized Crk in situ.
In intramolecular smFRET, non-radiative energy transfer occurs when two fluorophores attached to different parts of one molecule move close together. […] A cysteine-maleimide-based chemistry was used to label both CrkL and mutant (non-phosphorylatable) CrkL-Y207F. CrkL has a cysteine (a relatively rare amino acid) in its SH2 (labeled with AlexaFluor555) and SH3C (labeled with AlexaFluor647). […] Western Blot (WB) and immunoprecipitation (IP) was used to verify that labeled proteins retain the same gross functional properties as wild-type CrkL (e.g., are phosphorylatable and capable of binding SH2 and SH3 ligands). Briefly, site-specific labeled CrkL was mixed with Ab1 in the presence of Mg^2+ and ATP. A single AlphaScreen-identified candidate inhibitor was then added per assay.

Entries after “also recorded” stand apart in the source; their conditions may differ. Where a name gives a salt, the structure may show the parent alone. Read-outs that look alike come from different tables or passages of the source.

Chain of CrkL (P46109 whole entry, the tested form may be a part): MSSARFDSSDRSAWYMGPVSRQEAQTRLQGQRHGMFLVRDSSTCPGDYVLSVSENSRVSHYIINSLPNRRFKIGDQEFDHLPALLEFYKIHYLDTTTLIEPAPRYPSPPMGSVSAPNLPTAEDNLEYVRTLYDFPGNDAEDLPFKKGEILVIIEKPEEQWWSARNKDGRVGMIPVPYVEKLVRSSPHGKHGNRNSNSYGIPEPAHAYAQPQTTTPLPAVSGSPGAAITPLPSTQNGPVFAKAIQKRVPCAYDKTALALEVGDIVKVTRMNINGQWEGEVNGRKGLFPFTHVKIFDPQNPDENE

With `CC(C)=CCc1c2c(c3occ(-c4ccc5c(c4)OS(=O)(=O)O5)c(=O)c3c1OS(=O)(=O)F)C=CC(C)(C)O2` [Compound II], the “toxicity compared with NC5 (MTT viability)” value in [1] (5 μM) is reported as “increased toxicity”. Further, the “killing effect compared with NC5 (MTT)” value in data set [1] (different concentrations) is reported as “comparable killing effect as NC5”. The “killing effect by propidium iodide staining” value in data set [2] was “killing effect was further confirmed”. In addition, the “killing effect / toxicity compared with NC5 (MTT)” value in data set [3] is given as “stronger killing effect than NC5; also recorded: increased toxicity”.

For `CC(C)=CCc1c2c(c(O)c3c(=O)c(-c4ccc5c(c4)OS(=O)(=O)O5)coc13)C=CC(C)(C)O2` [Compound I], the tumor growth entry in data set [4] is “inhibit tumor growth”. The compound also came in with a median survival in data set [4] (vehicle 26 days) of 28.5 days. Also, the thermodynamic solubility in data set [5] (aqueous buffer, phosphate buffer (PB) system, pH 7.4, read-out: Thermodynamic Solubility pH=7.4) is less than 0.48 µg/mL; in data set [5] (water system, read-out: Thermodynamic Solubility Water), less than 0.48 µg/mL. The figures for the “toxic effect compared with NC5 (XTT viability)” value in [6] and in data set [7] were “comparable toxic effect as NC5” and “better toxic effect than NC5”, respectively. Moreover, in [8], the “toxic effect compared with NC5 (growth inhibition)” value is recorded as “better toxic effect than NC5”.

On to `Cc1ccc(NC(=O)c2ccc(CN3CCN(C)CC3)cc2)cc1Nc1nccc(-c2cccnc2)n1` [Gleevec, imatinib mesylate], for which the “damage to the liver and kidneys” value in [9] was “little to no damage to the liver and kidneys”. For the same compound, the IL2 secretion result in data set [10] (PBMCs from three healthy donors, treated overnight) was “did not inhibit IL2 secretion”. Also, the IL-2 production result in [10] (first donor, compared to DMSO) was “decreased IL-2 production”. In addition, the Alpha signal decrease in data set [11] is reported as 80-90%. The “inhibition of the higher FRET caused by Ab1 (pCrkL)” value in data set [12] (CrkL + Ab1, Mg2+ and ATP) is “inhibited”. The FRET signal in data set [12] (CrkL about 0.4, CrkL+Ab1 about 0.6) came out at 0.4.

In general, thermodynamic solubility refers to the concentration in solution at equilibrium with solid.
